Data on 5 compounds can be found in patent US20090093473A1, “Spiro-benzimidazoles as inhibitors of gastric acid secretion” (priority 2005, published 2009).

For orientation: inhibition in vivo means how much of the control response was suppressed. Read a low inhibition in vivo as little suppression. What is called melting point is the temperature of the solid-liquid transition.

Molecules are shown by their SMILES.

The subject of data set [1] is pentagastrin-stimulated acid secretion of the perfused rat stomach. As to the kind of experiment: Secretion-inhibiting action on the perfused rat stomach (pentagastrin-stimulated acid secretion). Type of data set: in vivo. To be noted: intraduodenal, anesthetized CD rat, dose 1 μmol/kg i.d. From the text: Testing of the Secretion-Inhibiting Action on the Perfused Rat Stomach
In Table A which follows, the influence of the compounds of the formula 1 according to the invention on the pentagastrin-stimulated acid secretion of the perfused rat stomach after intraduodenal administration in vivo is shown.
The abdomen of anesthetized rats (CD rat, female, 200-250 g; 1.5 g/kg i.m. urethane) was opened after tracheotomy by a median upper abdominal incision and a PVC catheter was fixed transorally in the esophagus and another via the pylorus such that the ends of the tubes just projected into the gastric lumen. The catheter leading from the pylorus led outward into the right abdominal wall through a side opening.
After thorough rinsing (about 50-100 ml), warm (37° C.) physiological NaCl solution was conbinuously passed through the stomach (0.5 ml/min, pH 6.8-6.9; Braun-Unita I). The pH (pH meter 632, glass electrode EA 147; φ=5 mm, Metrohm) and, by titration with a freshly prepared 0.01N NaOH solution to pH 7 (Dosimat 665 Metrohm), the secreted HCl were determined in the effluent in each case collected at an interval of 15 minutes.
The gastric secretion was stimulated by continuous infusion of 1 μg/kg (=1.65 mllh) of i.v. pentagastrin (left femoral vein) about 30 min after the end of the operation (i.e. after determination of 2 preliminary fractions). The substances to be tested were administered intraduodenally in a 2.5 ml/kg liquid volume 60 min after the start of the continuous pentagastrin infusion. The body temperature of the animals was kept at a constant 37.8-38° C. by infrared irradiation and heat pads (automatic, stepless control by means of a rectal temperature sensor).

On to `CC(=O)CNC(=O)c1cc2c(nc(C)n2C)c2c1CCC1(Cc3ccccc3C1)N2` [Example 14, 2,3-dimethyl-N-(2-oxopropyl)-1′,3,3′,6,7,9-hexahydrospiro[imidazo[4,5-h]quinoline-8,2′-indene]-5-carboxamide], for which the melting point lay within 222 to 223 °C. Besides, the inhibition in vivo at 1 µmol/kg in data set [1] was > 80%.
`Cc1nc2c3c(c(C(N)=O)cc2n1C)CCC1(Cc2ccccc2C1)N3` [Example 18, 2,3-dimethyl-1′,3,3′,6,7,9-hexahydrospiro[imidazo[4,5-h]quinoline-8,2′-indene]-5-carboxamide] returned a melting point of 272 to 273 °C. Besides, the inhibition in vivo at 1 µmol/kg in data set [1] was > 80%.
As to `Cc1nc2c3c(c(C(=O)N4CCOCC4)cc2n1C)CCC1(Cc2ccccc2C1)N3` [Example 25, 2,3-dimethyl-5-(morpholin-4-ylcarbonyl)-1′,3,3′,6,7,9-hexahydrospiro[imidazo[4,5-h]-quinoline-8,2′-indene]], the melting point lay within 284 to 285 °C. The inhibition in vivo at 1 µmol/kg in data set [1] is > 80%.
For `Cc1nc2c3c(c(C(=O)N4CCCC4)cc2n1C)CCC1(Cc2ccccc2C1)N3` [Example 22, 2,3-dimethyl-5-(pyrrolidin-1-ylcarbonyl)-1′,3,3′,6,7,9-hexahydrospiro[imidazo[4,5-h]-quinoline-8,2′-indene]] the same measures were 263 to 264 °C and > 80%.
On the same counts, the results for `Cc1nc2c3c(c(C(=O)N(C)C)cc2n1C)CCC1(Cc2ccccc2C1)N3` [Example 11, N,N,2,3-tetramethyl-1′,3,3′,6,7,9-hexahydrospiro[imidazo[4,5-h]quinoline-8,2′-indene]-5-carboxamide] are 178 to 179 °C and > 80%.
